Source: patent publication US20240272164A1, “METHODS FOR CLASSIFYING TUMORS AND USES THEREFOR” (THE UNIVERSITY OF QUEENSLAND, priority 2015, published 2024)
“Also recorded” adds a separate entry of the source.

How the values were obtained:
Assay type in all cases: cell-based
[1] = test system: A431 cells; experiment: EGF-Alexa488 uptake and clathrin localisation, confocal and 3D-SIM super-resolution microscopy; conditions: for Internalization of EGF-Alexa488: 30 min drug, EGF-Alexa488 last five minutes, confocal, FIG. 7A-C; for Clathrin recruitment to the plasma membrane: 3D-SIM volume projections, FIG. 7G-I; for Effect on HER1 (EGFR) at the plasma membrane: Pitstop-2 30 μM or chlorpromazine 18 μM, 30 min
Protocol: To discuss the experiments in more detail, A431 cells were incubated in serum-free medium with no drugs (control), or with Pitstop®-2 for 30 min or chlorpromazine for 30 min. During the last five minutes of treatment EGF-Alexa488 was added to monitor CME, after which cells were fixed and imaged (FIG. 7A-C).
Volume projections of a small area of the cell periphery were used to examine the recruitment of clathrin and EGF-positive sites to the cell periphery (FIG. 7G-I). The angle of 3D projection was chosen to show the upper surface of the cell plasma membrane. Points of co-localisation between EGF-Alexa^488 and Alexa^594-conjugated antibodies (which detects clathrin) are rare in 3D-SIM due to the capture of frequency information differences between the 488 and 594 excitation/emission spectra. […] A clathrin punctum was defined as being recruited an HER1-positive site when there was 50 nm or less distance between the clathrin and EGF puncta.
A431 cells were seeded on coverslips in 12-well plates and incubated overnight to reach 80% confluence for super-resolution microscopy based on structured illumination. After a 3 hour-serum starvation the cells were treated with 30 μM of Pitstop®-2 or 18 μM chlorpromazine for 30 min, followed by 5 min uptake with EGF-Alexa488 (100 ng/ml). The uptake of EGF was stopped by washing three times in ice cold PBS. The cells were fixed in 4% paraformaldehyde/phosphate-buffered saline for 30 min and washed three times in phosphate-buffered saline before DAPI staining for 30 min. The coverslips were mounted on slides in Prolong Gold (Life technologies) for confocal analysis or glycerol-based imaging media for three dimensional structured illumination microscopy (3D-SIM). Confocal images were acquired using a Zeiss 510 Meta confocal with a 63 Å˜ objective. Reconstructing the subsequent images after modulating the illumination pattern produces super-resolution images with double the lateral and axial resolution and up to 10 μm into the cell. 3D-SIM images were captured on a Deltavision OMX V3 Imaging System (Applied Precision), EMCCD cameras (CascadeII 512×512 Photometrics) and using a 60×1.4-NA UPlanSApo oil-immersion objective (Olympus) with oil of a refractive index of 1.518. […] Images were computationally reconstructed using Deltavision SoftWorX6.0 Beta 19 software (Applied Precision).

[2] = test system: breast cancer cell lines
Source text: Dyngo4a, a small molecule inhibitor of dynamin, was used to block dynamin-mediated endocytosis (Mccluskey et al., 2013) and added into the immune-dependent cytotoxicity assays. […] However, the specific cell death of BT474 cells was not enhanced following treatment with Dyngo4a (FIG. 4C).

[3] = test system: Cetuximab-sensitive or resistant cell lines; experiment: ADCC in response to Cetuximab with endocytosis inhibitors; conditions: either Cetuximab-sensitive or resistant cell lines
Protocol: If only the plasma membrane levels of HER1 determine ADCC response then we would expect that any pharmacological blockade of HER1 internalization would be expected to enhance ADCC. Thus, numerous endocytosis inhibitors were tested to investigate this hypothesis.

Compound	Internalization of EGF-Alexa488 ([1]; A431 cells)	Clathrin recruitment to the plasma membrane ([1]; A431 cells)	Effect on HER1 (EGFR) at the plasma membrane [1]	Toxicity of Dyngo4a [2]	Effect on ADCC in response to Cetuximab [3]	Inhibition of CCV (clathrin coated vesicle) formation ([1]; A431 cells, confocal and 3D-SIM)
CN(C)CCCN1c2ccccc2Sc2ccc(Cl)cc21 [chlorpromazine]	no internalization	does not inhibit clathrin recruitment	clustering and recruitment of HER1 into CCVs; also recorded: abundant EGFR was trapped at the cell membrane	–	–	–
O=C(N/N=C/c1cc(O)c(O)cc1O)c1cc2ccccc2cc1O [Dyngo4a]	–	–	–	non-toxic	–	–
O=C1NC(=NS(=O)(=O)c2cccc3ccccc23)S/C1=C\c1ccc(Br)cc1 [Pitstop®-2]	no internalization	clathrin was not recruited	caused HER1 to be trapped on the plasma membrane	–	did not increase ADCC	inhibits CCV formation
